# Experimental data: patent US11680298B2, “Method of identifying risk of cancer and therapeutic options” (Agency for Science, Technology and Research, priority 2016, dated 2023)
# “Also recorded” adds a separate entry of the source.
# Assays:
# S100A7/8/9 = assay: Real-time PCR analysis of S100A7/8/9 gene expression in cells; type: cell-based, human
# Procedure: Total RNA was isolated using TRIzol® reagent (Life Technologies, Carlsbad, Calif.; 15596026) and purified with Direct-zolTM RNA MiniPrep (Zymo Research, Irvine, Calif.; […]). Reverse transcription and quantitative PCR assays were performed using High-Capacity cDNA Reverse Transcription Kit (Applied Biosystems, Carlsbad, Calif.; 4368813) and KAPA SyBr Fast qPCR kit (KAPA Biosystems, Wilmington, Mass.; KK4601). For quantification of mRNA levels, GAPDH level was used as an internal control. All reactions were analysed in an Applied Biosystems PRISM 7500 Fast Real-Time PCR system in 96-well plate format. For RNA extraction of xenograft tumours, snap frozen samples were resuspended in TRIzol® reagent and homogenized with QIAGEN TissueLyzer II as described by the manufacturer, followed by purification with Direct-zolITM RNA MiniPrep.
# EL12-58 PDX tumours = assay: Neoadjuvant breast cancer PDX model of tumour recurrence; type: in vivo, NOD-SCID mice; settings: after paclitaxel-induced regression and surgery; 20 mg/kg paclitaxel, 150 mg/kg pacritinib or both
# [1] = system: ER positive and ER negative breast cancer cell lines tumourspheres; assay: Tumoursphere growth in breast cancer cell lines with or without 1q21.3 amplification; type: cell-based; settings: increasing dose of pacritinib
# Procedure: For this purpose, the 1q21.3 gene amplification in a series of breast cancer cell lines was profiled using ddPCR (FIG. 6A). Of note, 1q21.3 status in these cell lines was in general correlated with phospho-IRAK1 and expression of S100A8/9 (FIG. 6B and FIG. 14A), but not with phospho-JAK2 status (FIG. 6B).
# Mammosphere Formation Assay PDX-derived tumoursphere cells were trypsinized and passed through 40 μm cell strainer to achieve single cell suspensions. 3×10^4 cells were seeded in 6-well ultra-low attachment plates (Corning, N.Y.; CLS3471) in serum-free DMEM/F12 supplemented with N2 and B27 (Gibco, Grand Island, N.Y.), 20 ng/ml epidermal growth factor (MACS, Auburn, Calif.), 20 ng/ml basic fibroblast growth factor (MACS, Auburn, Calif.), 0.2 μM Thiazovivin ([…] Technologies, Vancouver, BC) and penicillin/streptomycin (Gibco, Carlsbad, Calif.). For breast cancer cell lines and MCF10A cell line, 3×10^4 cells were seeded in 6-well ultra-low attachment plates in Mammocult medium (Stem Cell Technologies, Vancouver, BC, Canada), supplemented with fresh hydrocortisone (0.5 μg/ml) and heparin (1:500). […] After 7-9 days, mammospheres were stained with INT (2-(4-iodophenyl)-3-(4-nitrophenyl)-5-phenyl-2H-tetrazolium chloride, Sigma-Aldrich) and quantified. Imaging and quantification were done using GelCount apparatus and associated software (Oxford Optronix, Abingdon, UK). […]
# MB231 tumourspheres = assay: Mammosphere (tumoursphere) formation assay, MB231; type: cell-based; settings: MB231 cell line
# Procedure: Mammosphere Formation Assay PDX-derived tumoursphere cells were trypsinized and passed through 40 μm cell strainer to achieve single cell suspensions. 3×10^4 cells were seeded in 6-well ultra-low attachment plates (Corning, N.Y.; CLS3471) in serum-free DMEM/F12 supplemented with N2 and B27 (Gibco, Grand Island, N.Y.), 20 ng/ml epidermal growth factor (MACS, Auburn, Calif.), 20 ng/ml basic fibroblast growth factor (MACS, Auburn, Calif.), 0.2 μM Thiazovivin ([…] Technologies, Vancouver, BC) and penicillin/streptomycin (Gibco, Carlsbad, Calif.). For breast cancer cell lines and MCF10A cell line, 3×10^4 cells were seeded in 6-well ultra-low attachment plates in Mammocult medium (Stem Cell Technologies, Vancouver, BC, Canada), supplemented with fresh hydrocortisone (0.5 μg/ml) and heparin (1:500). Mammospheres were maintained at 37° C. with 5% CO2 and topped up with medium every 3 days. After 7-9 days, mammospheres were stained with INT (2-(4-iodophenyl)-3-(4-nitrophenyl)-5-phenyl-2H-tetrazolium chloride, Sigma-Aldrich) and quantified. Imaging and quantification were done using GelCount apparatus and associated software (Oxford Optronix, Abingdon, UK). […] Cell Proliferation Assay
# HCC70 xenograft tumours = assay: In vivo pacritinib sensitivity test, HCC70 orthotopic xenograft; parameters: species or system NOD-SCID mice; settings: 1q21.3-amplified HCC70; 50, 100 and 150 mg/kg pacritinib daily by oral gavage for 21 days
# JAK2 = target: T1, JAK2 (Homo sapiens, UniProt O60674); assay: Western blot of phospho-JAK2 in breast cancer cells and patient-derived tumourspheres; type: cell-based; settings: 6 hr pacritinib treatment, western blot
# T1 construct: endogenous in cells; host or cells: MB468 and MB231 cells; PDX-derived tumourspheres
# T1 sequence (O60674 whole entry): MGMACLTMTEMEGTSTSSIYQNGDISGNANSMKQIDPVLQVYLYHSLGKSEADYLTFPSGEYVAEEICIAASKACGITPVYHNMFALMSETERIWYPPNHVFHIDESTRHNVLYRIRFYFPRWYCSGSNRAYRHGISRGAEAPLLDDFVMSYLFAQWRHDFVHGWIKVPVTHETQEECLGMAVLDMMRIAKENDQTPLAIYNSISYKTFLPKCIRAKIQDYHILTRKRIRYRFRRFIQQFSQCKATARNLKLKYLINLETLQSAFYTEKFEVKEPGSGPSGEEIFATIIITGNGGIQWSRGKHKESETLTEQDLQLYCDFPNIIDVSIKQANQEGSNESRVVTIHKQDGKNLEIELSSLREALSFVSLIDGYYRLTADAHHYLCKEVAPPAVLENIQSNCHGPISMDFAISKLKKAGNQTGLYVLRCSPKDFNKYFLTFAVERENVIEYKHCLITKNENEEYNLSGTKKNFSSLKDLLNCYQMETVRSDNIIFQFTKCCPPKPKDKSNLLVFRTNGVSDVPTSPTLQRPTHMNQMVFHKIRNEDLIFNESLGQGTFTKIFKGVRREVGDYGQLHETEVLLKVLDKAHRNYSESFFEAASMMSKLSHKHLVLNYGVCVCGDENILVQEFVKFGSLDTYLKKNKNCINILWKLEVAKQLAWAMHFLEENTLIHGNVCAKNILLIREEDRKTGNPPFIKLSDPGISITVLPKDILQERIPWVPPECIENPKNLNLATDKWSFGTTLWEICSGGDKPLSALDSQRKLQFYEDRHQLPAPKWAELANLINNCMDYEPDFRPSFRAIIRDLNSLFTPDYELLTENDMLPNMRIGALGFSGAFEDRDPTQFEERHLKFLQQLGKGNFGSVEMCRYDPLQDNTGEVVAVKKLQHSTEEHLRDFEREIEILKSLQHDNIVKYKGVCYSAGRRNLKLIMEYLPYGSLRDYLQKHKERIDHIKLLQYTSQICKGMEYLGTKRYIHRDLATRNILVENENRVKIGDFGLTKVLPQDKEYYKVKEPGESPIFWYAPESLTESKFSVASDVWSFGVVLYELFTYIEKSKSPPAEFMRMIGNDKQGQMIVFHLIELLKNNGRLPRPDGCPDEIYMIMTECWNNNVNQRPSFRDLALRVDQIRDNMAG
# From the text: All immunoblots shown in this specification represent at least two independent experiments. In brief, cells were washed with PBS and lysed in RIPA buffer supplemented with protease and phosphatase inhibitors and further sonicated using an XL2000 Microson Ultrasonice Processor (Misonix). Equal amounts of protein extract were separated on SDS-polyacrylamided gels and transferred to PVDF membranes. Membranes were further blocked with 5% milk or BSA, and then probed with the following antibodies: anti-IRAK1 was purchased from Santa Cruz Biotechnology (Santa Cruz, Calif.; sc-7883), anti-phospho-IRAK1 (T209) was purchased from Assay Biotech (Sunnyvale, Calif.; A1074), anti-JAK2 (Danvers, Mass.; #3230) and anti-phospho-JAK2 ([…]) (Danvers, Mass.: #3774) were purchased from Cell Signaling Technology, anti-actin was purchased from Sigma Aldrich CA; A5441). For protein extraction of xenograft tumours, snap frozen samples were resuspended in RIPA buffer supplemented with protease and phosphatase inhibitors and homogenized with QIAGEN TissueLyzer II as described by the manufacturer, followed by immunoblotting as described above.
# IRAK1 = IRAK1 (Homo sapiens, UniProt P51617); settings: recently reported; cited from earlier work
# Sequence of IRAK1 (P51617 whole entry): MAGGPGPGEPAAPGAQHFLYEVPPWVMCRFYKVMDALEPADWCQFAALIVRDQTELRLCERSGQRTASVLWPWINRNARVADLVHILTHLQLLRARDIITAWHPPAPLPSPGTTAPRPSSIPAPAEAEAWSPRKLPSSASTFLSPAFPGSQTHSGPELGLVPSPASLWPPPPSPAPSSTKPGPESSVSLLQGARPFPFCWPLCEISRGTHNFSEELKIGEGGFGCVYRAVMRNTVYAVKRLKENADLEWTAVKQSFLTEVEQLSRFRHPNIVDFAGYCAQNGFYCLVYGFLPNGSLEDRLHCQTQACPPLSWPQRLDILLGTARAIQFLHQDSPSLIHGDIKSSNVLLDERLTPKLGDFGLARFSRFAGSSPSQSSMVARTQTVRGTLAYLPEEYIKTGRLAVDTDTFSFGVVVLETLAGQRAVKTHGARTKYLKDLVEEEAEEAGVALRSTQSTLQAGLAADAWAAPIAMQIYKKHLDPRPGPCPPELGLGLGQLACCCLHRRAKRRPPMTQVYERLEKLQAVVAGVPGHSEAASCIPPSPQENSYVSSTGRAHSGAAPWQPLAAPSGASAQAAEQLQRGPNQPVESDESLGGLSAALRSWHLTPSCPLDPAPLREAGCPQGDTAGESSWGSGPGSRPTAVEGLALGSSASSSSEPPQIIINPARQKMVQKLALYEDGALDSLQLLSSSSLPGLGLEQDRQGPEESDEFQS
# MB231 tumours = assay: In vivo pacritinib sensitivity test, MB231 orthotopic xenograft; parameters: species or system NOD-SCID mice; settings: 1q21.3 non-amplified MB231; 50, 100 and 150 mg/kg pacritinib daily by oral gavage for 21 days
compound,measurement,setting,value
C1=C/COCc2cc(ccc2OCCN2CCCC2)Nc2nccc(n2)-c2cccc(c2)COC/1 [pacritinib],expression of S100A7/8/9,"S100A7/8/9; MB468 cells, 24 hr pacritinib treatment",reduced the expression of S100A7/8/9 in MB468 cells in a dose-dependent manner
same,S100A7 expression,S100A7/8/9; across the cell models tested,seemed to be cell specific
same,expressions of S100A8 and S100A9,S100A7/8/9; across the cell models tested,consistently reduced
same,expression of S100A7/8/9,"S100A7/8/9; patient-derived tumoursphere cells, 24 hr, pacritinib 2.5 μM",reduced expression of S100A7/8/9
same,tumour regrowth after surgical removal of residual tumour,EL12-58 PDX tumours,slowed down
same,"tumoursphere growth, 1q21.3 amplified versus non-amplified cell lines",[1],preferential growth inhibition of breast cancer cells containing amplified S100A8 and/or S100A9 genes; also recorded: more effective in impairing tumoursphere growth in cancer cell lines positive for 1q21.3 amplification compared to negative cell lines; also recorded: more sensitive to pacritinib treatment compared to cancer cells without 1q21.3 amplification
same,number of tumourspheres,MB231 tumourspheres,little effect
same,tumour growth,HCC70 xenograft tumours,substantial inhibition in tumour growth
same,phosphorylation of JAK2,JAK2; MB231 cells,inhibition of phospho-IRAK1 and phospho-JAK2 within 6 hr; also recorded: inhibited phosphorylation of JAK2
same,phosphorylation of JAK2,JAK2; MB468 cells,inhibition of phospho-IRAK1 and phospho-JAK2 within 6 hr; also recorded: effectively block the phosphorylation of both IRAK1 and JAK2 as early as 6 hours in a dose-dependent manner
same,IRAK1 inhibition,IRAK1,potent IRAK1 inhibitor
same,tumour growth,MB231 tumours,no obvious effect
